Data: US9278940B2, “Cyclic amines as bromodomain inhibitors” (Zenith Epigenetics Corp., priority 2012, dated 2016)
Structures can show the parent of a compound that is named as a salt.

Experiments:
Human AML MV-4-11 cells = assay: Inhibition of cell proliferation in MV4-11 cells; type: cell-based; design: key: Active: Compounds with an IC50 value less than 30 μM are deemed to be active.; Not Active: Compounds with an IC50 value less than 30 μM are deemed to be active; conditions: 72 hours
Protocol: MV4-11 cells: 96-well plates were seeded with 5×10^4 cells per well of exponentially growing human AML MV-4-11 (CRL-9591) cells and immediately treated with two-fold dilutions of test compounds, ranging from 30 μM to 0.2 μM. Triplicate wells were used for each concentration, as well as a media only and three DMSO control wells. The cells and compounds were incubated at 37° C., 5% CO2 for 72 hours before adding 20 μL of the CellTiter Aqueous One Solution (Promega) to each well and incubating at 37° C., 5% CO2 for an additional 3-4 hours. The absorbance was taken at 490 nm in a spectrophotometer and the percentage of proliferation relative to DMSO-treated cells was calculated after correction from the blank well. IC50 were calculated using the GraphPad Prism software.

c-myc = assay: Inhibition of c-myc expression (mRNA, real-time PCR) in MV4-11 cells; type: cell-based; design: key: Active: Compounds with an IC50 value less than 30 μM were deemed to be active.; Not Active: Compounds with an IC50 value less than 30 μM were deemed to be active; conditions: Human AML MV4-11 cells, 3 hours
Protocol: MV4-11 cells (2.5×10^4 cells) were plated in 96 well U-bottom plates with test compound or DMSO (0.1%), and incubated for 3 hours at 37° C. Cells were then harvested by centrifugation, lysed, and mRNA was isolated using the mRNA catcher plus kit (Invitrogen). Reverse transcription of the mRNA and duplex amplification of the c-myc and cyclophilin cDNAs was performed using the RNA Ultrasense kit (Invitrogen) and a ViiA7 real-time PCR machine (Applied Biosystems). IC50 values were determined from a dose response curve.

Brd4 bromodomain 1 = biological target: T1, Brd4 bromodomain 1 (Homo sapiens, UniProt O60885); assay: Inhibition of tetra-acetylated histone H4 binding to BET bromodomain (TR-FRET); design: key: Active: Compounds with an IC50 value less than 30 μM were deemed to be active.; Not Active: Compounds with an IC50 value less than 30 μM were deemed to be active; conditions: Brd4 bromodomain 1, tetra-acetylated histone H4 peptide
T1 construct: made in house; host or cells: E. coli BL21(DE3)
Protocol: Proteins were cloned and overexpressed with a N-terminal 6×His tag, then purified by nickel affinity followed by size exclusion chromatography. Briefly, E. coli BL21(DE3) cells were transformed with a recombinant expression vector encoding N-terminally Nickel affinity tagged bromodomains from Brd2, Brd3, Brd4. Cell cultures were incubated at 37° C. with shaking to the appropriate density and induced overnight with IPTG. The supernatant of lysed cells was loaded onto Ni-IDA column for purification. Eluted protein is pooled, concentrated and further purified by size exclusion chromatography. Fractions representing monomeric protein were pooled, concentrated, aliquoted, and frozen at −80° C. for use in subsequent experiments.
Binding of tetra-acetylated histone H4 and BET bromodomains was confirmed by a Time Resolved Fluorescence Resonance Energy Transfer (TR-FRET) method. N-terminally His-tagged bromodomains (200 nM) and biotinylated tetra-acetylated histone H4 peptide (25-50 nM, Millipore) were incubated in the presence of Europium Cryptate-labeled streptavidin (Cisbio Cat. #610SAKLB) and XL665-labeled monoclonal anti-His antibody (Cisbio Cat. #61HISXLB) in a white 96 well microtiter plate (Greiner). For inhibition assays, serially diluted test compound was added to these reactions in a 0.2% final concentration of DMSO. Final buffer concentrations were 30 mM HEPES pH 7.4, 30 mM NaCl, 0.3 mM CHAPS, 20 mM phosphate pH 7.0, 320 mM KF, 0.08% BSA). After 2 hours incubation at room temperature, the fluorescence by FRET was measured at 665 and 620 nm by a SynergyH4 plate reader (Biotek). The binding inhibitory activity was shown by a decrease in 665 nm fluorescence relative to 620 nm. IC50 values were determined from a dose response curve.

hApoA-1 mRNA = assay: Up-regulation of hApoA-1 mRNA transcription in Huh7 cells; type: cell-based, human; design: key: Active: Compounds with an EC170 value less than 30 μM are deemed to be active.; Not Active: Compounds with an EC170 value less than 30 μM are deemed to be active; conditions: 48 hrs treatment, ApoA-I mRNA
Protocol: In this example, ApoA-I mRNA in tissue culture cells was quantitated to measure the transcriptional up-regulation of ApoA-I when treated with a compound of the present disclosure.
Huh7 cells ([…] per well) were plated in a 96-well plate using 100 μL DMEM per well, (Gibco DMEM supplemented with penicillin/streptomycin and 10% FBS), 24 h before the addition of the compound of interest. After 48 hrs treatment, the spent media was removed from the Huh-7 cells and placed on ice (for immediate use) or at −80° C. (for future use) with the “LDH cytotoxicity assay Kit II” from Abcam. The cells remaining in the plate were rinsed with 100 μL PBS.
Then 85 μL of cell lysis solution was added to each well and incubated for 5-10 minutes at room temperature, to allow for complete cell lysis and detachment. mRNA was then prepared using the “mRNA Catcher PLUS plate” from Life Technologies, according to the protocol supplied. After the last wash, as much wash buffer as possible was aspirated without allowing the wells to dry. Elution Buffer (E3, 80 μL) was then added to each well. mRNA was then eluted by incubating the mRNA Catcher PLUS plate with Elution Buffer for 5 minutes at 68° C., and then 1 minute at 4° C. Catcher plates with mRNA eluted were kept on ice for use or stored at −80° C.
The eluted mRNA isolated was then used in a one-step real-time PCR reaction, using components of the Ultra Sense Kit together with Life Technologies primer-probe mixes. Real-time PCR data was analyzed, using the Ct values, to determine the fold induction of each unknown sample, relative to the control (that is, relative to the control for each independent DMSO concentration).
Compounds with an EC170 value less than 30 μM are deemed to be active.

hIL-6 mRNA = assay: Inhibition of hIL-6 mRNA transcription in LPS-stimulated U937 macrophages; type: cell-based, human; design: key: Active: Compounds with an IC50 value less than 30 μM are deemed to be active.; Not Active: Compounds with an IC50 value less than 30 μM are deemed to be active; conditions: U937 cells differentiated with PMA, 1 h pretreatment, LPS 3 h
Protocol: In this example, hIL-6 mRNA in tissue culture cells was quantitated to measure the transcriptional inhibition of hIL-6 when treated with a compound of the present disclosure.
A human leukemic monocyte lymphoma cell line (U937) was plated (3.2×10^4 cells per well) in a 96-well plate in […] RPMI-1640 containing 10% FBS and penicillin/streptomycin, and differentiated into macrophages for 3 days in 60 ng/mL PMA ([…]) at 37° C. in 5% CO2 prior to the addition of the compound of interest. The cells were pretreated for 1 h with the test compound prior to stimulation with 1 ug/mL lipopolysaccharide from Escherichia coli. The cells were incubated at 37-C for 3 h before the cells were harvested. At time of harvest, the spent media was removed from the cells and the cells were rinsed in 200 μL PBS. Cell lysis solution (70 μL) was added the cells in each well and incubated for 5-10 min at room temperature, to allow for complete cell lysis and detachment. mRNA was then prepared using the “mRNA Catcher PLUS plate” (Invitrogen), according to the protocol supplied. After the last wash, as much wash buffer as possible was aspirated without allowing the wells to dry. Elution buffer (E3, 70 μL) was then added to each well. mRNA was then eluted by incubating the mRNA Catcher PLUS plate with Elution Buffer for 5 min at 68° C. and then immediately placing the plate on ice.
The eluted mRNA isolated was then used in a one-step quantitative real-time PCR reaction, using components of the Ultra Sense Kit together with Applied Biosystems primer-probe mixes. Real-time PCR data was analyzed, normalizing the Ct values for hIL-6 to an internal control, prior to determining the fold induction of each unknown sample, relative to the control.

Row | SMILES | cell proliferation activity (IC50 < 30 μM) (Human AML MV-4-11 cells) | c-myc activity (IC50 < 30 μM) (c-myc) | FRET activity (IC50 < 30 μM) (Brd4 bromodomain 1) | IL-6 activity (IC50 < 30 μM) (hIL-6 mRNA) | melting point | ApoA-1 activity (EC170 < 30 μM) (hApoA-1 mRNA)
1 | CCC(=O)N1CCN(c2cccc(-c3nc4cc(OC)cc(OC)c4c(=O)[nH]3)n2)CC1 [Example 19, 5,7-Dimethoxy-2-(6-(4-propionylpiperazin-1-yl)pyridin-2-yl)quinazolin-4(3H)-one dihydrochloride] | Not Active | Not Active | Active | Not Active | – | Active
2 | COc1cc(OC)c2c(=O)[nH]c(-c3cccc(N4CCN(CCS(C)(=O)=O)CC4)n3)nc2c1 [Example 6, 5,7-Dimethoxy-2-(6-(4-(2-(methylsulfonyl)ethyl)piperazin-1-yl)pyridin-2-yl)quinazazolin-4(3H)-one] | Not Active | Not Active | Active | Active | – | Active
3 | COc1cc(OC)c2c(=O)[nH]c(-c3cc(Cl)cc(N4CCNCC4)c3)nc2c1 [Example 31, 2-(3-Chloro-5-(piperazin-1-yl)phenyl)-5,7-dimethoxyquinazolin-4(3H)-one] | Active | Active | Active | Active | – | Active
4 | COc1cc(OC)c2c(=O)[nH]c(-c3ccc(OCCNC(C)C)c(N4CCN(C(C)C)CC4)n3)nc2c1 [Example 12, 2-(5-(2-(Isopropylamino)ethoxy)-6-(4-isopropylpiperazin-1-yl)pyridin-2-yl)-5,7-dimethoxyquinazolin-4(3H)-one bis(trifluoroacetate)] | Active | Active | Active | Not Active | – | Active
5 | COc1cc(OC)c2c(=O)[nH]c(-c3cccc(N4CCN(CC(=O)O)CC4)n3)nc2c1 [Example 10, 2-(4-(6-(5,7-Dimethoxy-4-oxo-3,4-dihydroquinazolin-2-yl)pyridin-2-yl)piperazin-1-yl)acetic acid] | – | – | Active | Not Active | 225 °C (dec.) | –
6 | COC(=O)CN1CCN(c2cccc(-c3nc4cc(OC)cc(OC)c4c(=O)[nH]3)n2)CC1 [Example 7, Methyl 2-(4-(6-(5,7-dimethoxy-4-oxo-3,4-dihydroquinazolin-2-yl)pyridin-2-yl)piperazin-1-yl)acetate] | – | – | Active | Active | 176 to 177 °C | –

More lines, main results first:

Row | cell proliferation activity (IC50 < 30 μM) (Human AML MV-4-11 cells) | c-myc activity (IC50 < 30 μM) (c-myc) | FRET activity (IC50 < 30 μM) (Brd4 bromodomain 1) | IL-6 activity (IC50 < 30 μM) (hIL-6 mRNA) | melting point | SMILES | ApoA-1 activity (EC170 < 30 μM) (hApoA-1 mRNA)
7 | Active | Active | Active | Active | – | COc1cc(OC)c2c(=O)[nH]c(-c3cccc(N4CCC(N(C)C)CC4)n3)nc2c1 [Example 29, 2-(6-(4-(Dimethylamino)piperidin-1-yl)pyridin-2-yl)-5,7-dimethoxyquinazolin-4(3H)-one] | Active
8 | Active | Active | Active | Active | – | COc1cc(OC)c2c(=O)[nH]c(-c3cccc(N4CCN(C)CC4)n3)nc2c1 [Example 15, 5,7-Dimethoxy-2-(6-(4-methylpiperazin-1-yl)pyridin-2-yl)quinazolin-4(3H)-one Hydrochloride] | Active
9 | – | – | – | – | 138 to 139 °C | COc1cc(OC)c2c(=O)[nH]c(-c3ccc(OCCO)c(N4CCN(C(C)C)CC4)n3)nc2c1 (as salt: acetate) [Example 13, 2-(5-(2-Hydroxyethoxy)-6-(4-isopropylpiperazin-1-yl)pyridin-2-yl)-5,7-dimethoxyquinazolin-4(3H)-one acetate] | –
10 | – | – | – | – | 186 to 188 °C | COc1cc(OC)c2c(=O)[nH]c(-c3ccc(OCCNC(C)C)c(N4CCN(C(C)C)CC4)n3)nc2c1 (as salt: trifluoroacetate) [Example 12, 2-(5-(2-(Isopropylamino)ethoxy)-6-(4-isopropylpiperazin-1-yl)pyridin-2-yl)-5,7-dimethoxyquinazolin-4(3H)-one bis(trifluoroacetate)] | –
11 | Not Active | Active | Active | Active | – | COc1cc(OC)c2c(=O)[nH]c(-c3ccc(OCCO)c(N4CCN(C(C)C)CC4)n3)nc2c1 [Example 13, 2-(5-(2-Hydroxyethoxy)-6-(4-isopropylpiperazin-1-yl)pyridin-2-yl)-5,7-dimethoxyquinazolin-4(3H)-one acetate] | Active
